Laboratory results as given in the supplement of paper PMC11061612.

Tests used:
[1] = tested on: 8505C (Thyroid Gland Carcinoma); assay: combination Emax (second highest fraction inhibited in the dose matrix, 72 h); higher = more inhibition; extreme values may be limits of the assay
In short: (§1)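 Cell lines in DMEM/F12 or RPMI with 10% FBS were plated in 1536-well plates, held 24 hours at 37°C, 5% CO2, then given two-drug dose matrices for 72 hours (DMSO typically 0.2%). Viability was read by CellTiter-Glo 2.0 luminescence and scaled as inhibition from 0 (vehicle wells) to 1 (blank wells). Combination Emax is the second-highest inhibition in the matrix; Bliss excess is observed combination effect minus expected EA + EB − EA·EB, EA and EB being single-agent effects.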

[2] = tested on: SUP-B15 (B-Lymphoblastic Leukemia); assay: Bliss excess, mean over the matrix (fraction); higher = more synergy
In short: as §1

[3] = tested on: IM-95 (Gastric Carcinoma); assay: as above
In short: as §1

[4] = tested on: JHH-4 (Hepatocellular Carcinoma); assay: as above
In short: as §1

[5] = tested on: CHSA8926 (Chondrosarcoma); assay: as above
In short: as §1

[6] = tested on: KP-3 (Pancreatic Carcinoma); assay: as above
In short: as §1

[7] = tested on: NCI-H2731 (Mesothelioma); assay: as above
In short: as §1

[8] = tested on: ESO51 (Esophageal Adenocarcinoma); assay: as above
In short: as §1

[9] = tested on: NCI-H526 (Small Cell Lung Carcinoma); assay: as above
In short: as §1

[10] = tested on: SU-DHL-5 (B-Cell Non-Hodgkin's Lymphoma); assay: as above
In short: as §1

[11] = tested on: NCI-H3122 (Lung Adenocarcinoma); assay: as above
In short: as §1

[12] = tested on: H9 (T-Cell Non-Hodgkin's Lymphoma); assay: as above
In short: as §1

[13] = tested on: MN-60 (B-Lymphoblastic Leukemia); assay: as above
In short: as §1

[14] = tested on: G-361 (Melanoma); assay: as above
In short: as §1

[15] = tested on: KY821 (Acute Myeloid Leukemia); assay: as above
In short: as §1

[16] = tested on: MOLM-13 (Acute Myeloid Leukemia); assay: as above
In short: as §1

[17] = tested on: HCC1187 (Breast Carcinoma); assay: as above
In short: as §1

[18] = tested on: T-T (Esophageal Squamous Cell Carcinoma); assay: as above
In short: as §1

[19] = tested on: PC-3 (Prostate Carcinoma); assay: as above
In short: as §1

[20] = tested on: NCCIT (Other Solid Carcinomas); assay: as above
In short: as §1
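Wherever Bliss excess, mean over the matrix is given: after 72 h of two-drug dosing.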

| SMILES | combination Emax [1] | Bliss excess [2] | Bliss excess [3] | Bliss excess [4] | Bliss excess [5] | Bliss excess [6] | Bliss excess [7] | Bliss excess [8] | Bliss excess [9] | Bliss excess [10] | Bliss excess [11] | Bliss excess [12] | Bliss excess [13] | Bliss excess [14] | Bliss excess [15] | Bliss excess [16] | Bliss excess [17] | Bliss excess [18] | Bliss excess [19] | Bliss excess [20] |
| --- | --- | --- | --- | --- | --- | --- | --- | --- | --- | --- | --- | --- | --- | --- | --- | --- | --- | --- | --- | --- |
| NC1(C(=O)N[C@@H](CCO)c2ccc(Cl)cc2)CCN(c2ncnc3[nH]ccc23)CC1 [Capivasertib] + COc1nnc2ccc(N3CCC(c4ccc(OCCN5CCN(C)C(=O)[C@H]5C)cc4)CC3)nn12 [AZD5153] (first compound max 10 µM, 7x7, partner max 1 µM) | 0.405 | 0.0274 | 0.073 | 0.0028 | 0.0617 | 0.0226 | -0.0012 | 0.0603 | -0.0213 | -0.0179 | -0.0131 | -0.0047 | -0.042 | 0.0218 | -0.0351 | 0.0145 | 0.0491 | -0.0365 | -0.0242 | 0.0382 |
| NC1(C(=O)N[C@@H](CCO)c2ccc(Cl)cc2)CCN(c2ncnc3[nH]ccc23)CC1 [Capivasertib] + C[C@@H]1COCCN1C2=NC(=NC(=C2)C3(CC3)[S@](=N)(=O)C)C4=C5C=CNC5=NC=C4 [AZD6738] (first compound max 10 µM, 7x7, partner max 10 µM) | 0.475 | 0.0044 | -0.0093 | 0.0086 | -0.0179 | -0.0499 | -0.0267 | -0.0208 | -0.0193 | 0.0087 | -0.0758 | 0.0057 | -0.0337 | -0.0397 | -0.0558 | -0.02 | -0.0292 | -0.0452 | -0.0389 | -0.0139 |
| NC1(C(=O)N[C@@H](CCO)c2ccc(Cl)cc2)CCN(c2ncnc3[nH]ccc23)CC1 [Capivasertib] + Cn1cnc2c(F)c(Nc3ccc(Br)cc3Cl)c(C(=O)NOCCO)cc21 [Selumetinib] (first compound max 10 µM, 7x7, partner max 10 µM) | 0.5 | 0.0854 | -0.0017 | -0.0762 | 0.034 | 0.0087 | -0.0115 | 0.0417 | 0.0296 | 0.0547 | 0.092 | 0.0271 | -0.0652 | 0.0429 | 0.0177 | 0.0677 | 0.0534 | 0.095 | -0.0419 | 0.059 |
| Cc1nc(Nc2ncc(C(=O)Nc3c(C)cccc3Cl)s2)cc(N2CCN(CCO)CC2)n1 [Dasatinib] + CC(=O)Nc1cccc(-n2c(=O)n(C3CC3)c(=O)c3c(Nc4ccc(I)cc4F)n(C)c(=O)c(C)c32)c1 [Trametinib] (first compound max 2 µM, 7x7, partner max 1 µM) | 0.628 | -0.0562 | -0.0551 | -0.116 | -0.194 | 0.0304 | 0.0298 | -0.0066 | -0.0323 | 0.0159 | -0.0651 | -0.193 | -0.029 | -0.0282 | -0.144 | 0.0284 | -0.0367 | 0.0381 | -0.0759 | -0.0842 |
| COc1cccc2c1C(=O)c1c(O)c3c(c(O)c1C2=O)C[C@@](O)(C(=O)CO)C[C@@H]3O[C@H]1C[C@H](N)[C@H](O)[C@H](C)O1 [Doxorubicin] + Cc1cc2ncnn2cc1Nc1ncc2c(n1)n(C1CCOCC1)c(=O)n2C [AZD7648] (first compound max 1 µM, 7x7, partner max 10 µM) | 0.846 | 0.153 | 0.016 | 0.0376 | -0.0053 | -0.0405 | 0.0506 | 0.0291 | 0.0586 | 0.111 | 0.031 | 0.0887 | 0.0759 | 0.0791 | 0.0822 | 0.0551 | 0.114 | 0.0318 | 0.0175 | -0.0142 |
| COc1cc2ncnc(Nc3ccc(F)c(Cl)c3)c2cc1OCCCN1CCOCC1 [Gefitinib] + CC(C)n1c(=O)n(C)c2cnc3cc(F)c(-c4ccc(OCCCN5CCCCC5)nc4)cc3c21 [AZD1390] (first compound max 10 µM, 7x7, partner max 0.3 µM) | 0.0956 | -0.0673 | -0.0527 | -0.0751 | -0.113 | -0.074 | -0.0434 | -0.0488 | -0.0342 | -0.0317 | -0.0775 | -0.0723 | -0.0444 | -0.0718 | -0.0553 | -0.0462 | -0.04 | -0.0411 | -0.0643 | -0.0466 |
| CS(=O)(=O)CCNCc1ccc(-c2ccc3ncnc(Nc4ccc(OCc5cccc(F)c5)c(Cl)c4)c3c2)o1 [Lapatinib] + C[C@@H](Oc1cc(-c2cnn(C3CCNCC3)c2)cnc1N)c1c(Cl)ccc(F)c1Cl [Crizotinib] (first compound max 10 µM, 7x7, partner max 10 µM) | 0.721 | 0.024 | 0.0467 | 0.0041 | -0.0231 | -0.0234 | -0.0456 | 0.0885 | 0.0069 | -0.0186 | 0.0001 | -0.0249 | -0.0288 | -0.0416 | 0.0312 | 0.0308 | -0.0156 | -0.0172 | -0.0174 | 0.0045 |
| CC(=O)c1c(C)c2cnc(Nc3ccc(N4CCNCC4)cn3)nc2n(C2CCCC2)c1=O [Palbociclib] + CC1(C)CCC(CN2CCN(c3ccc(C(=O)NS(=O)(=O)c4ccc(NCC5CCOCC5)c([N+](=O)[O-])c4)c(Oc4cnc5[nH]ccc5c4)c3)CC2)=C(c2ccc(Cl)cc2)C1 [Venetoclax] (first compound max 10 µM, 7x7, partner max 1 µM) | 0.047 | -0.0176 | -0.0399 | -0.0003 | -0.0232 | -0.0533 | -0.0002 | -0.0078 | -0.0033 | -0.0201 | -0.0335 | -0.0394 | -0.0666 | 0.016 | 0.0485 | 0.04 | -0.0079 | -0.027 | -0.0582 | -0.0412 |
| CC(=O)c1c(C)c2cnc(Nc3ccc(N4CCNCC4)cn3)nc2n(C2CCCC2)c1=O [Palbociclib] + Cc1c2c(nn1C)CSCc1cc(n(C)n1)CSc1cc(c3ccccc3c1)OCCCc1c(C(=O)O)n(C)c3c-2c(Cl)ccc13 [AZD5991] (first compound max 10 µM, 7x7, partner max 1 µM) | 0.245 | -0.207 | -0.114 | -0.0518 | -0.0807 | -0.0436 | -0.0484 | -0.0192 | 0.0026 | -0.0071 | -0.0217 | -0.0795 | -0.0363 | -0.0464 | -0.0372 | -0.0314 | 0.0023 | 0.0028 | -0.0501 | -0.0538 |
| CC(=O)c1c(C)c2cnc(Nc3ccc(N4CCNCC4)cn3)nc2n(C2CCCC2)c1=O [Palbociclib] + Cn1cnc2c(F)c(Nc3ccc(Br)cc3Cl)c(C(=O)NOCCO)cc21 [Selumetinib] (first compound max 10 µM, 7x7, partner max 10 µM) | 0.364 | 0.0147 | 0.0356 | -0.0336 | -0.0697 | -0.0328 | -0.0341 | 0.0041 | -0.0213 | 0.101 | -0.0306 | -0.0868 | -0.0405 | -0.0785 | 0.0803 | 0.0262 | -0.0142 | 0.0252 | -0.0627 | -0.0291 |
| COc1cccc(OCCCN)c1-c1cc(Nc2cnc(C#N)cn2)n[nH]1 [Prexasertib] + C=CCn1c(=O)c2cnc(Nc3ccc(N4CCN(C)CC4)cc3)nc2n1-c1cccc(C(C)(C)O)n1 [AZD1775] (first compound max 1 µM, partner max 1 µM) | 0.727 | 0.0224 | 0.0876 | 0.0703 | -0.0416 | -0.0138 | 0.0338 | -0.0153 | 0.0502 | 0.0644 | 0.124 | 0.0958 | 0.0534 | 0.0806 | 0.063 | 0.036 | 0.102 | 0.208 | 0.0469 | 0.0561 |
| COc1cccc(OCCCN)c1-c1cc(Nc2cnc(C#N)cn2)n[nH]1 [Prexasertib] + CCc1c2c(nc3ccc(O)cc13)-c1cc3c(c(=O)n1C2)COC(=O)[C@]3(O)CC [SN-38] (first compound max 1 µM, 7x7, partner max 0.3 µM) | 0.854 | -0.0197 | 0.0026 | -0.0289 | -0.0024 | 0.0321 | 0.0108 | -0.0376 | -0.0164 | 0.0023 | -0.002 | -0.0004 | -0.0452 | -0.0219 | -0.0235 | 0.0073 | 0.164 | 0.12 | -0.0185 | 0.0269 |
| COc1cccc(OCCCN)c1-c1cc(Nc2cnc(C#N)cn2)n[nH]1 [Prexasertib] + CN(C)CCCOc1ccc(-c2ccc3ncc4c(c3c2)n(C2CCOCC2)c(=O)n4C)cn1 [AZD0156] (first compound max 1 µM, 7x7, partner max 1 µM) | 0.541 | -0.0513 | 0.0384 | -0.0346 | -0.039 | 0.0021 | -0.012 | -0.0414 | -0.0158 | -0.0089 | 0.0204 | 0.0022 | -0.0077 | 0.061 | -0.0228 | -0.0248 | -0.0016 | 0.0061 | -0.0352 | 0.0017 |
| COc1cccc(OCCCN)c1-c1cc(Nc2cnc(C#N)cn2)n[nH]1 [Prexasertib] + C[C@@H]1COCCN1C2=NC(=NC(=C2)C3(CC3)[S@](=N)(=O)C)C4=C5C=CNC5=NC=C4 [AZD6738] (first compound max 1 µM, 7x7, partner max 10 µM) | 0.551 | -0.0671 | 0.0244 | 0.0024 | 0.0171 | 0.0162 | -0.0089 | -0.0632 | 0.0283 | -0.0147 | 0.0704 | -0.0023 | -0.0035 | 0.045 | -0.0129 | -0.0051 | 0.0754 | 0.0178 | -0.0102 | 0.011 |
| COc1cccc(OCCCN)c1-c1cc(Nc2cnc(C#N)cn2)n[nH]1 [Prexasertib] + Cc1cc2ncnn2cc1Nc1ncc2c(n1)n(C1CCOCC1)c(=O)n2C [AZD7648] (first compound max 1 µM, 7x7, partner max 10 µM) | 0.483 | -0.0406 | -0.0163 | -0.0281 | -0.0143 | 0.0141 | -0.0001 | -0.0081 | -0.0038 | -0.0314 | 0.0055 | 0.0256 | 0.0271 | -0.0052 | 0.0276 | -0.0094 | 0.0307 | 0.0364 | -0.036 | -0.0331 |
